Data on 54 molecules can be found in US9932300B2, “N,N′-diarylurea compounds and N,N′-diarylthiourea compounds as inhibitors of translation initiation” (President and Fellows of Harvard College, priority 2009, dated 2018).

This assay deals with eIF2-GTP-Met-tRNAi ternary complex. Description: Ternary complex assay (dual luciferase, firefly/renilla ratio) in stable KLN-tTA/pBISA-DL(ATF-4) cells; HTS and hit confirmation. The conditions noted are these: confirmed hits of the screen (Table 5); for Activity 2.5 uM: compound at 2.5 uM; for Activity 10 uM: compound at 10 uM. It is filed as cell-based, mouse. Further details: Activity 10 uM / Activity 2.5 uM / Activity 5 uM: unit not given here.

“And” between values parts separate entries of the source, which are not always exact repeats. Equal entries are not always repeated.

Turning to `CCCCCCN(CCCCCC)C(=S)N/N=C(\C)c1ccccn1` [Compound 647131], the “Activity 2.5 uM” value was found to be 1.96 and the “Activity 10 uM” value is recorded as 17.42. For `CC(=O)Nc1ccc(C(O)/C(=N/N)c2nc3ccc(Cl)cc3[nH]c2=O)cc1` (stereo not shown) [Compound 647590] the same measures were 2.31 and 3.22. For `CCCN(CCC)c1c([N+](=O)[O-])cc(S(N)(=O)=O)cc1[N+](=O)[O-]` [Compound 648479] the same measures were 2.55 and 3.37. Take `Cc1ccc(C2C(Cl)C(=O)N2n2cnc3ccccc3c2=O)cc1` (stereo not shown) [Compound 650027]: the “Activity 2.5 uM” value was found to be 4.2 and the “Activity 10 uM” value came out at 4.42. For `COc1ccc(/C=C(\C2=NC(=O)CS2)c2nc3ccccc3[nH]2)cc1` [Compound 652047] the same measures were 1.15 and 3.51.

`COc1ccc2c3ccc4c(c3n(C)c2c1)C(=O)C=CC4=O` [Compound 652257]: the “Activity 2.5 uM” value worked out at 3.09 and the “Activity 10 uM” value came to 8.74. For `O=c1c([Se]c2coc3ccccc3c2=O)coc2ccccc12` [Compound 652531] the same measures were 0.71 and 12.9. `O=[N+]([O-])[O-].O=[N+]([O-])[O-].[Au].[Au].c1ccc([P-]c2ccccc2)cc1.c1ccc([P-]c2ccccc2)cc1` [Compound 652594]: the “Activity 2.5 uM” value stood at 1.46 and the “Activity 10 uM” value was found to be 14.89.

For the molecule `O=C1/C(=C/c2ccc(O)c(O)c2)CCC/C1=C\c1ccc(O)c(O)c1` [Compound 652890], the “Activity 2.5 uM” value is listed as 2.23 and the “Activity 10 uM” value worked out at 7.57. For `COc1ccc(-c2nnc(-c3nsc4ccccc34)o2)cc1` [Compound 652917] the same measures were 2.33 and 3.31. For `COc1ccc(Nc2nnc(-c3nsc4ccccc34)s2)cc1` [Compound 652924] the same measures were 1.78 and 3.58. For the molecule `CCN(CC)CCCNc1ncc(C)c2c1c1ccc3c(O)cccc3c1n2C` [Compound 653438], the “Activity 2.5 uM” value was determined as 0.755 and the “Activity 10 uM” value is on record as 12.32. Turning to `CCSc1nnc(-c2ccccc2)nc1Cc1ccc(OC)cc1` [Compound 655141], the “Activity 2.5 uM” value is 2.18 and the “Activity 10 uM” value amounted to 3.91. For `O=C1C(c2ccc([N+](=O)[O-])cc2)=C(Cl)C(=O)c2c(O)cccc21` [Compound 656075] the same measures were 2.33 and 7.97. For `O=C1C(Cl)=C(c2ccc([N+](=O)[O-])cc2)C(=O)c2c(O)cccc21` [Compound 656076] the same measures were 4.6 and 17.27. For `CCN(CC)Cc1cc(Nc2c3ccccc3nc3c2[nH]c2ccccc23)cc(CN(CC)CC)c1O.Cl` [Compound 656711] the same measures were 0.59 and 6.66. In the case of `Cc1ccc(C2=Nc3cccc4cccc(c34)N2)cc1` [Compound 657189], the “Activity 2.5 uM” value was 2.65 and the “Activity 10 uM” value is 3.16. For `CC(=O)C1C(=O)C(=O)N(c2ccc([N+](=O)[O-])cc2)C1=O.[Na+]` (stereo not shown) [Compound 657424] the same measures were 1.17 and 3.36. For the molecule `COc1ccc(-c2nc(Nc3ccccc3)sc2Cc2sc(Nc3ccccc3)nc2-c2ccc(OC)cc2)cc1` [Compound 658163], the “Activity 2.5 uM” value was 2.63 and the “Activity 10 uM” value came to 4.46. On to `CCN1CCNc2c3cc(OC)ccc3nc3c([N+](=O)[O-])ccc1c23` [Compound 658354], for which the “Activity 2.5 uM” value is 0.2379 and the “Activity 10 uM” value is given as 6.609.

As to `COc1ccc2nc3c([N+](=O)[O-])ccc4c3c(c2c1)NCCN4CCO` [Compound 658355], the “Activity 2.5 uM” value is 0.5 and the “Activity 10 uM” value stood at 8.48. For `COc1ccc2c(c1)c1c3c(ccc4ncn2c43)N(CCO)CCN=1` [Compound 658358] the same measures were 0.4 and 20.35.

Turning to `Cl.Cn1c(N)nc(-c2ccc(Cl)cc2)c1SSc1c(-c2ccc(Cl)cc2)nc(N)n1C` [Compound 658830], the “Activity 2.5 uM” value came to 0.48 and the “Activity 10 uM” value is given as 4.21. Take `CCn1c(O)c(C=Nc2ccccc2)s/c1=N/Nc1nc(C)cs1` [Compound 658916]: the “Activity 2.5 uM” value was determined as 2.047 and the “Activity 10 uM” value was 3.18. For `O=C(CC(=O)Nc1ccccc1Cl)NNC(c1cc(N=Nc2ccc(Br)cc2)ccc1O)P(O)O` (stereo not shown) [Compound 659608] the same measures were 1.34 and 3.07.

As to `O=C1C=CC(=O)c2c1ccc1c3ccccc3n(-c3cccc([N+](=O)[O-])c3)c21` [Compound 661223], the “Activity 2.5 uM” value worked out at 1.05 and the “Activity 10 uM” value came to 11.8. For `Cn1c2ccccc2c2c(-c3ccccc3)cc3c(c21)C(=O)C=CC3=O` [Compound 661225] the same measures were 1.76 and 25.16. On to `[Ru].[SH+]=C([SH2+])N1CCCCC1.[SH+]=C([SH2+])N1CCCCC1` [Compound 662875], for which the “Activity 2.5 uM” value worked out at 10.55 and the “Activity 10 uM” value stood at 40.72. For `O=c1n(-c2ccc(Cl)c(Cl)c2)c(=O)n(-c2ccc(Cl)c(Cl)c2)c(=O)n1-c1ccc(Cl)c(Cl)c1` [Compound 664259] the same measures were 2.76 and 4.24.

Turning to `Cc1nc2ccc(Br)cc2c(=O)n1-c1ccc(NC2OC(CO)C(O)C(O)C2O)cc1` (stereo not shown) [Compound 665512], the “Activity 2.5 uM” value is given as 0.47 and the “Activity 10 uM” value is recorded as 15.46. For `c1cc(-c2ncc(-c3ccc4c(c3)CCCO4)o2)ccn1` [Compound 665702] the same measures were 1.79 and 3.38. For `Cc1ccc(S(=O)(=O)n2c3c(c4ccccc42)CCN2C(=O)C(S(=O)(=O)c4ccccc4)=CCC32)cc1` (stereo not shown) [Compound 665910] the same measures were 0.72 and 4.69.

With `N#Cc1c(N)nc([Se]CC(=O)c2ccc(Cl)cc2)c(C#N)c1-c1ccco1` [Compound 666131], the “Activity 2.5 uM” value is listed as 4.12 and the “Activity 10 uM” value is 8.72. For `COc1ccc(/C=N/Nc2nc3ccccc3c(=O)n2-c2ccccc2)cc1` [Compound 666356] the same measures were 2.43 and 30.26.

For the molecule `COc1ccc(C2Oc3c(cccc3OC)C=C2[N+](=O)[O-])cc1` (stereo not shown) [Compound 667223], the “Activity 10 uM” value was 6.01 and 8.726. For the molecule `COc1cccc2c1OC(c1ccc(C#N)cc1)C([N+](=O)[O-])=C2` (stereo not shown) [Compound 667226], the “Activity 2.5 uM” value is 0.34 and the “Activity 10 uM” value is on record as 4.79. For `S=C1CC(c2ccccc2)Sc2ccccc2N1` (stereo not shown) [Compound 667463], the “Activity 2.5 uM” value is listed as 3.13 and the “Activity 10 uM” value amounted to 3.45.

In the case of `O=[N+]([O-])C1=Cc2cc(Cl)ccc2OC1c1cccc2ccccc12` (stereo not shown) [Compound 667472], the “Activity 2.5 uM” value is listed as 0.35 and the “Activity 10 uM” value turned out to be 9.48. For `Cc1cccc(/C=N\NC(=S)N2CCCCC2)n1` [Compound 667875] the same measures were 4.59 and 7.27. Consider `S=C(N/N=C/c1ccccn1)N1CC2CCC(CC2)C1` [Compound 667885], for which the “Activity 2.5 uM” value was 8.61 and the “Activity 10 uM” value is 15.62. Regarding `C=C1CC(C)(COc2ccc3c(C)cc(=O)oc3c2)OC1=O` (stereo not shown) [Compound 668262], the “Activity 2.5 uM” value worked out at 0.78 and the “Activity 10 uM” value was 3.33. For `COc1ccccc1NC(=S)N/N=C(/C)c1ccccn1` [Compound 668297] the same measures were 10.51 and 37.53. For `COc1ccccc1NC(=S)N/N=C/c1ccccn1` [Compound 668298] the same measures were 11.99 and 30.06. For `C/C(=N/NC(=S)Nc1ccccc1C)c1ccccn1` [Compound 668332], the “Activity 2.5 uM” value came out at 27.24 and the “Activity 10 uM” value worked out at 63.38. On to `C/C(=N/NC(=S)Nc1cccc(Cl)c1)c1cccc(/C(C)=N\NC(=S)Nc2cccc(Cl)c2)n1` [Compound 668484], for which the “Activity 2.5 uM” value is 1.59 and the “Activity 10 uM” value is 3.57.

Consider `Oc1[nH]c2ccccc2c1N=NC(=S)N1CCCC1` [Compound 668494], for which the “Activity 2.5 uM” value came to 3.76 and the “Activity 10 uM” value stood at 13.68. For `O=C1C=CC(=O)c2c1ccc1c3ccccc3n(CCCCCn3c4ccccc4c4ccc5c(c43)C(=O)C=CC5=O)c21` [Compound 668605] the same measures were 0.8 and 3.17.

Take `S=C(NCCc1ccccn1)N/N=C/c1ccccn1` [Compound 670779]: the “Activity 2.5 uM” value was 2.57 and 2.721; the “Activity 10 uM” value was 6.67 and 8.739.

Regarding `C/C(=N/NC(=S)NC(C)(C)C)c1ccccn1` [Compound 670788], the “Activity 2.5 uM” value is recorded as 6.58 and the “Activity 10 uM” value is on record as 4.08.

For the molecule `S=C(N/N=C/c1ccccn1)Nc1ccc(Cl)cc1` [Compound 670965], the “Activity 2.5 uM” value was 50.7 and 44.32; the “Activity 10 uM” value is 23.32 and 25.3088. Turning to `S=C(NCc1ccccc1)N/N=C/c1ccccn1` [Compound 670969], the “Activity 2.5 uM” value came out at 1.55 and the “Activity 10 uM” value came out at 3.644.

For `[CH+]=CC1([O][Sn-]([IH+])([c]2ccccc2)[c]2ccccc2)CCCCCC1` [Compound 671441], the “Activity 2.5 uM” value worked out at 5.35. Take `Cc1cc[c]([Sn]([I])([O]C2(C=O)CCCCCC2)[c]2ccc(C)cc2)cc1` [Compound 671442]: the “Activity 2.5 uM” value came out at 9.59 and the “Activity 10 uM” value came to 7.03.

In the case of `CCCCCCCN1C(=O)C(O)(c2ccc(C3(O)C(=O)N(CCCCCCC)c4ccccc43)s2)c2ccccc21` (stereo not shown) [Compound 671896], the “Activity 2.5 uM” value is given as 0.85 and the “Activity 10 uM” value was determined as 4.31.
